{
  "source": "patent US20110028758A1",
  "about": "“Trans-cinnamic acid derivative, its preparation mathod and the use” (priority 2007, published 2011)",
  "key": {"[1]": {"assay": "Solubility of compounds in solvents (Table 1)", "format": "physicochemical"}, "[2]": {"test_system": "human cervical carcinoma Hela cells", "assay": "MTT anti-tumor test in vitro, Hela", "format": "cell-based", "conditions": "Homo sapiens, HeLa, 48 h", "text": "(§1) A complete culture medium is used for diluting the above original solution into corresponding concentrations for later use.\n(§2) Human cervical carcinoma Hela cells, human hepatoma BEL-7402 cells, mucinous Human epidermoid A549 lung cancer cells, human breast cancer MCF-7/S cells, human glioma U251 cells, and human normal embryonic kidney HEK-293 cells are purchased from USA, American Type Culture Collection (ATCC). All the tumor cells are used the DMEM medium (containing 10% FBS, 100 U/ml penicillin and 100 μg/ml streptomycin) for culturing and subculturing, and HEK-293 cells are using RPMI1640 medium (10% FBS, 100 U/ml penicillin, and 100 μg/ml streptomycin) for culturing and subculturing, wherein the culture condition is in a 5% CO2 incubator at 37° C.\nSubculture six kinds of cells, which has a logarithmic growing period, adherent rate about 80%, and in good condition, such as human cervical carcinoma Hela cells, human hepatoma BEL-7402 cells, mucinous Human epidermoid A549 lung cancer cells, human breast cancer MCF-7/S cells, human glioma U251 cells, and human normal embryonic kidney HEK-293 cells. Discard the culture medium, rinse 1-2 times with PBS to remove serum, add 1 ml 0.25% Trypsin-0.01% EDTA (37° C. incubation) to digest for 1-2 minutes, add FBS culture medium to terminate the above digestion, centrifuge at a speed below 800 r/min for 2-3 minutes and discard the supernatant, re-suspended cells in 10% FBS medium, tack the cell suspension liquid for cell counting, adjust the density of the above liquid to 1×10^5/ml, then inoculate to a 96-holes plates (100 μl/hole), and then incubate in 5% CO2 incubator at 37° C. overnight. The next day add above cells to different concentrations of I-a, I-b, I-c and I-d, 100 μl/hole (its final concentration is respectively 30, 60, 120, 240, 480 μg/ml); meanwhile, set up the blank control group (0 μM), and establish 3 holes. Continuing the cultural process, discard the culture medium after 48 hours that the drug has been effected, add 100 μl PBS of 0.5 mg/ml MTT (PH 7.2) into each holes, after 4 hours culture, remove the culture medium by adherent cells express flipping method, add 100 μl of DMSO to each holes, oscillate it by micro-oscillation device for 5 minutes, and measure the OD value at 490 nm wavelength. Repeat the above experiment three times to get an average value. Calculate the inhibition rate (IR %) of the tumor cell proliferation in vitro from different concentrations of I-a, I-b, I-c, I-d by the following formula:\n(§3) IR %=(1−ODsampale/ODcontrol)×100%\nUse SPSS11.5 software to calculate the half inhibitory concentration IC50 of I-a, I-b, I-c and I-d. The results are shown in Table 2 to illustrate IC50 values (unit: μg/ml) of the four compounds."}, "[3]": {"test_system": "human normal embryonic kidney HEK-293 cells", "assay": "MTT test on normal cells, HEK-293", "format": "cell-based", "conditions": "for IC50: Homo sapiens; for inhibitory effect on HEK-293 cells: at concentrations having 50% inhibitory effect on the tumor cells", "text": "as §1, §2\nSubculture six kinds of cells, which has a logarithmic growing period, adherent rate about 80%, and in good condition, such as human cervical carcinoma Hela cells, human hepatoma BEL-7402 cells, mucinous Human epidermoid A549 lung cancer cells, human breast cancer MCF-7/S cells, human glioma U251 cells, and human normal embryonic kidney HEK-293 cells. […] Repeat the above experiment three times to get an average value.\nas §3"}, "[4]": {"text": "The 180 tumor-bearing mice are divided into 18 groups by the weigh of the mice, wherein each group has 10 mice (half male and half female). The drug delivery methods of each group are shown in Table 3 to illustrate eighteen groups of mice drug delivery situation.\nGroup 2 is the cyclophosphamide (CTX) group, and the mice of group 2 are only given the cyclophosphamide in the intraperitoneal of the mice on the second day of the tumor-bearing.\nGroup 3 to 18 groups are given the four compounds respectively, wherein the groups delivered 25 mg/kg drug are tail vein low-dose group, wherein the groups delivered 50 mg/kg drugs are the tail vein medium-dose group, wherein the groups delivered 100 mg/kg drugs are the tail vein high-dose group, wherein the groups delivered 200 mg/kg drugs are the oral enteral group. These mice from group 3 to 18 start the drug delivery on the second day of the tumor-bearing, and delivered once a day for 10 sequent days.\nAfter the drug delivery, weight the mice weight, then execute the mice, and then weight the spleen and thymus weight by electronic weighting scale respectively. The spleen index and thymus index are the weight (mg) of mice spleen, thymus of each group/mice weight (g)."}, "[5]": {"conditions": "Hela, average of three experiments ± SD, MTT, 48 hours, read-out: IC50 value"}, "[6]": {"conditions": "Hela, experiment 2, MTT, 48 hours, read-out: IC50 value"}, "[7]": {"conditions": "Hela, experiment 3, MTT, 48 hours, read-out: IC50 value"}, "[8]": {"conditions": "read-out: HeLa cell proliferation IC50 values"}, "[9]": {"conditions": "HEK293, 48 h, HEK- (HEK-293), average of three experiments ± SD, MTT, 48 hours, read-out: IC50 value"}, "[10]": {"conditions": "HEK293, 48 h, HEK- (HEK-293), experiment 2, MTT, 48 hours, read-out: IC50 value"}, "[11]": {"conditions": "HEK293, 48 h, HEK- (HEK-293), experiment 3, MTT, 48 hours, read-out: IC50 value"}, "[12]": {"conditions": "HEK293, text, read-out: HEK-293 cells IC50 values"}, "[13]": {"conditions": "Hela, experiment 1, MTT, 48 hours, read-out: IC50 value"}, "[14]": {"conditions": "HEK293, 48 h, HEK- (HEK-293), experiment 1, MTT, 48 hours, read-out: IC50 value"}},
  "note": "Read-outs that look alike come from different tables or passages of the source.",
  "data": [
    {"smiles": "COc1ccc(/C=C/C(=O)O)c(O)c1CC=C(C)C", "note": "[I-a, (E)-2-hydroxy-4-methoxy-3-isopentenyl-cinnamic acid]", "values": [
      {"measurement": "Solubility", "setting": "[1]; solvent 0.1% NaOH", "value": "Soluble"},
      {"measurement": "Solubility", "setting": "[1]; solvent Acetone", "value": "Soluble"},
      {"measurement": "Solubility", "setting": "[1]; solvent Chloroform", "value": "Dissolved"},
      {"measurement": "Solubility", "setting": "[1]; solvent DMSO", "value": "Soluble"},
      {"measurement": "Solubility", "setting": "[1]; solvent Ethanol", "value": "Soluble"},
      {"measurement": "Solubility", "setting": "[1]; solvent Methanol", "value": "Soluble"},
      {"measurement": "IC50", "setting": "[2]; [5]", "value": "103 ± 8.48", "unit": "µg/mL"},
      {"measurement": "IC50", "setting": "[2]; [6]", "value": 115, "unit": "µg/mL"},
      {"measurement": "IC50", "setting": "[2]; [7]", "value": 96, "unit": "µg/mL"},
      {"measurement": "IC50", "setting": "[2]; [8]", "value": "103 ± 8.48", "unit": "µg/mL"},
      {"measurement": "IC50", "setting": "[3]; [9]", "value": "404 ± 9.2", "unit": "µg/mL"},
      {"measurement": "IC50", "setting": "[3]; [10]", "value": 399, "unit": "µg/mL"},
      {"measurement": "IC50", "setting": "[3]; [11]", "value": 414, "unit": "µg/mL"},
      {"measurement": "IC50", "setting": "[3]; [12]", "value": "404 ± 9.2", "unit": "µg/mL"},
      {"measurement": "inhibitory effect on HEK-293 cells", "setting": "[3]", "value": "unobvious"},
      {"measurement": "death during drug delivery", "setting": "[4]; high-dose group, tail vein 100 mg/kg, 10 days", "value": "does not have any death"},
      {"measurement": "splenomegaly of the tumor-bearing mice", "setting": "[4]; mouse, in vivo", "value": "no affect"}
    ]},
    {"smiles": "COc1ccc(/C=C\\C(=O)O)c(OC)c1CC=C(C)C", "note": "[I-b, (Z)-2,4-dimethoxy-3-isopentenyl-cinnamic acid]", "values": [
      {"measurement": "Solubility", "setting": "[1]; solvent 0.1% NaOH", "value": "Soluble"},
      {"measurement": "Solubility", "setting": "[1]; solvent Acetone", "value": "Dissolved"},
      {"measurement": "Solubility", "setting": "[1]; solvent Chloroform", "value": "Dissolved"},
      {"measurement": "Solubility", "setting": "[1]; solvent DMSO", "value": "Soluble"},
      {"measurement": "Solubility", "setting": "[1]; solvent Ethanol", "value": "Dissolved"},
      {"measurement": "Solubility", "setting": "[1]; solvent Methanol", "value": "Soluble"},
      {"measurement": "IC50", "setting": "[2]; [5]", "value": "324 ± 11.6", "unit": "µg/mL"},
      {"measurement": "IC50", "setting": "[2]; [13]", "value": 331, "unit": "µg/mL"},
      {"measurement": "IC50", "setting": "[2]; [6]", "value": 310, "unit": "µg/mL"},
      {"measurement": "IC50", "setting": "[2]; [7]", "value": 328, "unit": "µg/mL"},
      {"measurement": "IC50", "setting": "[2]; [8]", "value": "324 ± 11.6", "unit": "µg/mL"},
      {"measurement": "IC50", "setting": "[3]; [9]", "value": "365 ± 6.14", "unit": "µg/mL"},
      {"measurement": "IC50", "setting": "[3]; [14]", "value": 358, "unit": "µg/mL"},
      {"measurement": "IC50", "setting": "[3]; [10]", "value": 371, "unit": "µg/mL"},
      {"measurement": "IC50", "setting": "[3]; [11]", "value": 366, "unit": "µg/mL"}
    ]},
    {"smiles": "COc1ccc(/C=C/C(=O)O)c(OC)c1CC=C(C)C", "note": "[I-c, (E)-2,4-dimethoxy-3-isopentenyl-cinnamic acid]", "values": [
      {"measurement": "Solubility", "setting": "[1]; solvent 0.1% NaOH", "value": "Soluble"},
      {"measurement": "Solubility", "setting": "[1]; solvent Acetone", "value": "Dissolved"},
      {"measurement": "Solubility", "setting": "[1]; solvent Chloroform", "value": "Dissolved"},
      {"measurement": "Solubility", "setting": "[1]; solvent DMSO", "value": "Soluble"},
      {"measurement": "Solubility", "setting": "[1]; solvent Ethanol", "value": "Dissolved"},
      {"measurement": "Solubility", "setting": "[1]; solvent Methanol", "value": "Soluble"},
      {"measurement": "IC50", "setting": "[2]; [5]", "value": "96.2 ± 1.25", "unit": "µg/mL"},
      {"measurement": "IC50", "setting": "[2]; [13]", "value": 95, "unit": "µg/mL"},
      {"measurement": "IC50", "setting": "[2]; [6]", "value": 85.6, "unit": "µg/mL"},
      {"measurement": "IC50", "setting": "[2]; [7]", "value": 97, "unit": "µg/mL"},
      {"measurement": "IC50", "setting": "[2]; [8]", "value": "96.2 ± 1.25", "unit": "µg/mL"},
      {"measurement": "IC50", "setting": "[3]; [9]", "value": "369 ± 13.6", "unit": "µg/mL"},
      {"measurement": "IC50", "setting": "[3]; [14]", "value": 383, "unit": "µg/mL"},
      {"measurement": "IC50", "setting": "[3]; [10]", "value": 367, "unit": "µg/mL"},
      {"measurement": "IC50", "setting": "[3]; [11]", "value": 356, "unit": "µg/mL"},
      {"measurement": "IC50", "setting": "[3]; [12]", "value": "369 ± 13.6", "unit": "µg/mL"},
      {"measurement": "inhibitory effect on HEK-293 cells", "setting": "[3]", "value": "unobvious"},
      {"measurement": "effect near the tail vein of the mice and its surrounding tissue", "setting": "[4]; mouse, in vivo", "value": "irritation or corrosive"},
      {"measurement": "splenomegaly of the tumor-bearing mice", "setting": "[4]; mouse, in vivo", "value": "can cause the splenomegaly"}
    ]}
  ]
}
